Positions of bridges follow the written chain, without caps; N, C: chain ends. Residues, ends and D or L forms follow the SMILES beside them. No end group written: not given here.

These results are taken from patent US12492223B2, “Peptide compositions capable of binding lanthionine synthetase C-like protein (LanCl) and uses thereof” (priority 2021, dated 2025).

One assay deals with Chung rats. Nature of the assay: In vivo model of neuropathic pain (Chung model, Example 4). To be noted: oral, subcutaneous and/or intramuscular administration. Also on record: species or system rat. An excerpt:
This study was undertaken to assess the analgesic effect of the peptides described herein on neuropathic pain in vivo using a nerve constriction model in Chung rats. Briefly, adult male Sprague-Dawley rats, 8-9 weeks old, weighing 220-250 g at the time of surgery, were purchased from Charles River UK Ltd.
The animals were housed in groups of 4 in an air-conditioned room on a 12-hour light/dark cycle. Food and water were available ad libitum. They were allowed to acclimatise to the experimental environment for three days by leaving them on a raised metal mesh for at least 40 min. The baseline paw withdrawal threshold (PWT) was examined using a series of graduated von Frey hairs for 3 consecutive days before surgery and re-assessed on the 6th to 8th day after surgery and on the 12th to 14th day after surgery before drug dosing.
Each rat was anaesthetized with 5% isoflurane mixed with oxygen (2 L per min) followed by an intramuscular (i.m.) injection of ketamine 90 mg/kg plus xylazine 10 mg/kg. The back was shaved and sterilized with povidone-iodine. The animal was placed in a prone position and a para-medial incision was made on the skin covering the L4-6 level. The L5 spinal nerve was carefully isolated and tightly ligated with 6/0 silk suture. The wound was then closed in layers after a complete hemostasis. A single dose of antibiotics (Amoxipen, 15 mg/rat, i.p.) was routinely given for prevention of infection after surgery. The animals were placed in a temperature-controlled recovery chamber until fully awake before being returned to their home cages.
The vehicle (1% DMSO in PBS) or peptide was administrated intramuscularly (i.m.) into the leg of the side contralateral to the site of injury. Dosing was carried out by a second experimenter. […]
Each group had 8 animals. […] The lowest amount of force required to induce reliable responses (positive in 3 out of 5 trials) was recorded as the value of PWT.
The drug test was carried out on the 12th to 14th day after surgery. PWT were assessed before, 1, 2 and 4 hours following drug or vehicle administration. […]

For a further assay, the system named is HKx31 (H3N2). It is filed as in vivo, mice. Set-up: key to PMN activity score / Viral titre activity score / BAL IL-6 activity score: 0: inactive; 1: less active than the peptide of SEQ ID NO:38; 2: comparable or more active than the peptide of SEQ ID NO:38.
For the next assay, the system named is A549 cells. The experiment in a line: A549 proliferation + stress assay (restoration of viability of Taxol-treated cells, CellTiter-Glo). It is filed as cell-based, human. To be noted: for Estimated Activity in A549 proliferation + stress assay: 350 μM Taxol, 16 hours, peptide 1-100 μM. On the procedure:
An assay was developed that involves stressing cells with a dose of the chemotherapeutic agent, Taxol, that causes a 50% inhibition of cell viability when compared to untreated cells. Peptides were then added to the cell cultures at increasing concentrations to assess their ability to restore the viability of the Taxol-treated cells.
Briefly, A549 cells were cultured in opaque-walled multiwell plates with 50000 A549 cells/well in culture medium (DMEM medium ref 11960-044 Thermoscientific, +10% FBS ref 10270-106 Gibco, Thermoscientific, +1% Na pyruvate ref S8636-100 ML, Sigma, +1%, Glutamax ref35050061, Thermoscientific, +1% Penicillin-Streptomycin, ref 11074440001, Sigma) 100 μl per well for 96-well plates. Control wells containing medium without cells were used to obtain a value for background luminescence. Cells were incubated at 37° C. in 5% CO2 overnight.
100 μL of medium+DMSO+peptides or medium+Taxol+peptides (at the different concentrations) were added to each well and incubated for 16 hours at 37° C. 5% CO2.
Cell morphology, viability and confluency were assessed by phase contrast microscopy. The CellTiter-Glo® Luminescent Cell Viability Assay (G7571, Promega—a homogeneous method to determine the number of viable cells in culture based on quantitation of the ATP present) was then used to quantify the number of metabolically active cells, according to the manufacturer's instructions. 100 μl volume of CellTiter-Glo® Reagent was added to the 100 μL volume of cell culture medium present in each well, Contents were mixed for 2 minutes on an orbital shaker to induce cell lysis and after incubating the plates at room temperature for 10 minutes to stabilize luminescent signal luminescence was recorded with an integration time of 0.5 seconds using a CLARIOstar multi well luminometer (BMG Labtech)

Assay [1] addresses recombinant LanCL1 (rLanCL1) (Homo sapiens, UniProt O43813). Nature of the assay: biochemical. It is filed as binding. On the procedure: Dry pellets of LANCL1 previously photolabelled with photoprobes in the presence of different peptides or PBS/DMSO vehicle were resuspended in 30 μL SDS loading buffer (Bio Rad's XT Sample Buffer containing 2.5% v/v 2-mercaptoethanol) and heated (60° C., 30 min). Proteins were resolved using SDS-PAGE (4-15% Criterion™ TGX Stain-Free™ Protein Gel, Bio Rad) and analyzed by in-gel fluorescence scanning using a ChemiDoc™ MP Imaging System (Bio Rad) with a green LED light as an excitation source and a BP600/20 nm emission filter. After in-gel fluorescence scanning, gels were stained with Coomassie blue to ensure the same amount of protein sample was loaded in each lane and imaged with the ChemiDoc™ MP Imaging System. Photoincorporation of each photoprobe in LANCL1 was quantitatively assessed by measuring the fluorescent intensity of the corresponding gel band using Image lab software (Bio Rad) and normalizing this value against the intensity value of LANCL1 gel band stained with Coomassie blue to control for loading differences.
(SEQ ID NO:22) from recombinant LanCL1 (rLanCL1).

recombinant LanCL1 (rLanCL1), sequence (O43813 whole entry, species assumed): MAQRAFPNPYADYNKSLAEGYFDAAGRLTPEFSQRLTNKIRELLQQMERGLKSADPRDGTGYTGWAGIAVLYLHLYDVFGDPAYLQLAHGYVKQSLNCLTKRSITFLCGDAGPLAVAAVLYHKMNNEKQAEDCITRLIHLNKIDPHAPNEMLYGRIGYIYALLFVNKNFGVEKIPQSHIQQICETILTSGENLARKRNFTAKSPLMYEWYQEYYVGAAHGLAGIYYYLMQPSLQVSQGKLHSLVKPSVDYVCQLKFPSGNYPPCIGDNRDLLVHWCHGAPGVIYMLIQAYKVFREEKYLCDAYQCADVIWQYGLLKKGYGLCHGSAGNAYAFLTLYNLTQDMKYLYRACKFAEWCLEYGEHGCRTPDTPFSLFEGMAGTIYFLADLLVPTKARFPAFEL

For “2 (CRSVEGSCGF; disulfide 1-8) [compound 2]”, the “neuropathic pain in the Chung model” value in the assay on Chung rats was “reduced neuropathic pain”. Besides, the PMN activity score in the assay with HKx31 (H3N2) (mouse, in vivo, 10 mg/kg) came to 2. Further, the “reducing the PMN infiltrate in BAL fluid, compared with the peptide of SEQ ID NO:38” value in the assay on HKx31 (H3N2) (single 10 mg/kg dose) is “as effective”.
“10 (SCRSRPVESSC; disulfide 2-11) [compound 10]”: the “neuropathic pain in the Chung model” value in the assay on Chung rats is on record as “reduced neuropathic pain”. The “Estimated Activity in A549 proliferation + stress assay” value with A549 cells is recorded as “STRONG (clear dose-dependent restoration of cell viability from 1-5 μM upwards)”. For the same compound, in the assay with A549 cells (Taxol-treated A549 cells), the “restoration of A549 viability” value is listed as “restore A549 viability”.
Take `CC[C@H](C)[C@H](NC(=O)[C@H](CCCNC(=N)N)NC(=O)[C@H](CC(C)C)NC(=O)[C@@H](N)Cc1ccc(O)cc1)C(=O)N[C@H](C(=O)N[C@@H](CCC(N)=O)C(=O)N[C@H]1CSSC[C@@H](C(=O)NCC(=O)N[C@@H](Cc2ccccc2)C(=O)O)NC(=O)[C@H](CO)NC(=O)CNC(=O)[C@H](CCC(=O)O)NC(=O)[C@H](C(C)C)NC(=O)[C@H](CO)NC(=O)[C@H](CCCNC(=N)N)NC1=O)C(C)C` [compound 1] (H-YLRIVQCRSVEGSCGF-OH; disulfide 7-14): the EC50 in assay [1] lay within 50 to 100 µM.
For the compound `CC(C)[C@@H]1NC(=O)[C@H](CO)NC(=O)[C@H](CCCNC(=N)N)NC(=O)[C@@H](N)CSSC[C@@H](C(=O)NCC(=O)O)NC(=O)[C@H](CO)NC(=O)CNC(=O)[C@H](CCC(=O)O)NC1=O` [compound 3] (H-CRSVEGSCG-OH; disulfide 1-8; N-terminus and C-terminus assumed), the “neuropathic pain in the Chung model” value in the assay with Chung rats is “reduced neuropathic pain”. The EC50 in assay [1] was ~150 µM.
Turning to `CC(C)[C@@H]1NC(=O)[C@@H]2CCCN2C(=O)[C@H](CCCNC(=N)N)NC(=O)[C@H](CO)NC(=O)[C@H](CCCNC(=N)N)NC(=O)[C@@H](N)CSSC[C@@H](C(=O)N[C@@H](CO)C(=O)O)NC(=O)[C@H](CO)NC(=O)[C@H](CO)NC(=O)[C@H](CCC(=O)O)NC1=O` [compound 14] (H-CRSRPVESSCS-OH; disulfide 1-10; N-terminus and C-terminus assumed), the “Estimated Activity in A549 proliferation + stress assay” value with A549 cells was “STRONG (clear dose-dependent restoration of cell viability from 1-5 μM upwards)”. In assay [1], the EC50 was ~100 µM.
With `CC[C@H](C)[C@@H]1NC(=O)[C@H](CCCNC(=N)N)NC(=O)[C@@H](N)CSSC[C@@H](C(=O)O)NC(=O)[C@H](CC(N)=O)NC(=O)[C@H](CC(N)=O)NC(=O)[C@H](CC(N)=O)NC(=O)[C@H](Cc2c[nH]cn2)NC(=O)[C@H]([C@@H](C)CC)NC1=O` [compound 24] (H-CRIIHNNNC-OH; disulfide 1-9), in assay [1], the half-maximal effective concentration (EC50) lay within 100 to 200 µM.
On the same count and under the same terms, in the case of `CC(C)C[C@@H]1NC(=O)[C@H](C)NC(=O)[C@H](CCCNC(=N)N)NC(=O)[C@H](CCC(=O)O)NC(=O)[C@H](CC(C)C)NC(=O)[C@H](CCC(N)=O)NC(=O)[C@H](CCC(=O)O)NC(=O)[C@H](CCC(N)=O)NC(=O)[C@@H](N)CSSC[C@@H](C(=O)O)NC(=O)[C@H](CO)NC(=O)[C@H](CO)NC(=O)[C@H](CC(N)=O)NC1=O` [compound 38] (H-CQEQLERALNSSC-OH; disulfide 1-13) it was 50 to 100 µM; in that of `CC(C)C[C@@H]1NC(=O)[C@H](C)NC(=O)[C@H](CCCNC(=N)N)NC(=O)[C@@H](N)CSSC[C@@H](C(=O)O)NC(=O)[C@H](CO)NC(=O)[C@H](CO)NC(=O)[C@H](CC(N)=O)NC1=O` [compound 40] (H-CRALNSSC-OH; disulfide 1-8), 50 to 100 µM.
Still for that read-out and setting: the value for QEQLERALNSS [compound 37] was 100 to 200 µM; that for RALNSS [compound 39] was > 200 µM.

Usually EC50 stands for the concentration giving half of the maximal effect.
